From patent US12227488B2, “Small molecule degraders of Helios and methods of use” (DANA-FARBER CANCER INSTITUTE, INC., priority 2018, dated 2025)

Experiments:
CRBN and Helios (IKZF2) = target: T1, CRBN and Helios (IKZF2) (Homo sapiens, UniProt Q96SW2+Q9UKS7); assay: TR-FRET dimerization assay (CRBN-IKZF2 ternary complex formation); type: binding; settings: n=1
T1 construct: His (N); Strep (N)
Protocol: A focused library of imide analogs was synthesized and assessed for their ability to induce dimerization between CRBN and Helios in a time-resolved fluorescence energy transfer (TR-FRET) assay (FIG. 1A).
Prior to TR-FRET measurements being conducted, the reactions were incubated for 15 min at rt. […] The TR-FRET signal of each data point was extracted by calculating the 520/490 nm ratios. Data from single measurements (n=1), each calculated as an average of at least three technical replicates per well per experiment are presented in Table 1.
BODIPY-labeled CRBN in complex with Damage Specific DNA Binding Protein 1 (DDB1) harboring an internal deletion of the flexible BPB propeller (DDB1AB-CRBN) and in vitro biotinylated IKZF2 were treated with increasing concentrations of the indicated compounds in the presence of tracer amounts of Terbium-Streptavidin (Tb-SA). Compound-induced recruitment of IKZF2 to CRBN was quantified following the 520/490 TR-FRET ratio using a PHERAstar® plate reader (BMG) utilizing two synchronized PMTs to reduce background.

IKZF2 = assay: Cellular degradation assay, eGFP-IKZF2Δ fusion with mCherry reporter in Flp-In 293 cells; type: cell-based; settings: for IKZF2 GFP/RFP Relative Abundance: 5 h incubation, n=1
Protocol: (§1) IKZF1Δ, IKZF2Δ, GSPT1 and SALL4 ZnF1-2 were subcloned into mammalian pcDNA5/FRT Vector (Ampicillin and Hygromycin B resistant) modified to contain MCS-eGFP-P2A-mCherry. […] Following 2-3 passage cycle, FACS (FACSAria™ II, BD) was used to enrich for cells expressing eGFP and mCherry. Cells stably expressing the IKZF1Δ, IKZF2Δ, GSPT1 or SALL4 Znf1-2 GFP fusions with mCherry reporter were seeded at 30-50% confluency in 384-well plates with 50 μL FluoroBrite™ DMEM media (Thermo Fisher Scientific, A18967) containing 10% FBS per well a day before compound treatment. Compound titrations were dispensed using a D300e Digital Dispenser (HP), normalized to 0.5% DMSO, and incubated with cells for 5 hours.
(§2) The resulting images were analyzed using CellProfiler™. A series of image analysis steps (‘image analysis pipeline’) was constructed. First, the red and green channels were aligned and cropped to target the middle of each well (to avoid analysis of heavily clumped cells at the edges), and a background illumination function was calculated for both red and green channels of each well individually and subtracted to correct for illumination variations across the 384-well plate from various sources of error. An additional step was then applied to the green channel to suppress the analysis of large auto fluorescent artifacts and enhance the analysis of cell specific fluorescence by way of selecting for objects under a given size, 30 A.U., and with a given shape, speckles. mCherry-positive cells were then identified in the red channel filtering for objects between 8-60 pixels in diameter and using intensity to distinguish between clumped objects. The green channel was then segmented into GFP positive and negative areas and objects were labeled as GFP positive if at least 40% of it overlapped with a GFP positive area. The fraction of GFP-positive cells/mCherry-positive cells in each well was then calculated, and the green and red images were rescaled for visualization.
(§3) The degradation assay was performed as described above. […] Degradation was measured after 5 h of compound treatment and the concentrations that lead to half degradation at 5 h (DC50,5 h) were calculated using the nonlinear fit variable slope model (GraphPad Software).

IKZF1 = target: T2, IKZF1 (Homo sapiens, UniProt Q13422); assay: Cellular degradation assay, eGFP-IKZF1Δ fusion with mCherry reporter in Flp-In 293 cells; type: cell-based; settings: for IKZF1 GFP/RFP Relative Abundance: 5 h incubation, n=1
T2 construct: expressed in transfected cells; host or cells: Flp-In 293
T2 sequence (Q13422 83-213 isoform Q13422-7 limits assumed): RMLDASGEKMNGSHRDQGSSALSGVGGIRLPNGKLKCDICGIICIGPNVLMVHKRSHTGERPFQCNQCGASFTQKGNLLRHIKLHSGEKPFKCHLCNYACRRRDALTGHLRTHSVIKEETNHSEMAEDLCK
T2 sequence (Q96SW2 whole entry partner, the tested form may be a part): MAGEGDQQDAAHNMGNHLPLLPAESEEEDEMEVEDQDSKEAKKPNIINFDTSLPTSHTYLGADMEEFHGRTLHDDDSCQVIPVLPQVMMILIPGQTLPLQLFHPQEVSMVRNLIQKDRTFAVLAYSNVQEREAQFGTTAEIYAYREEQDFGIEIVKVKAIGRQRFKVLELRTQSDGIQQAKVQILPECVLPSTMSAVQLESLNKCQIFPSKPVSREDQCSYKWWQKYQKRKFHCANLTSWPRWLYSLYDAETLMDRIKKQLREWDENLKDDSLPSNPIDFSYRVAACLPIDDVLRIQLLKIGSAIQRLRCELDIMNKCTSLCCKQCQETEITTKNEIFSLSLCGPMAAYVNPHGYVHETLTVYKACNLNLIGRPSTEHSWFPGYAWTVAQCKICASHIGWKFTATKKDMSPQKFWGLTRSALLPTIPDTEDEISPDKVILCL
T2 sequence (Q16531 2-1140 partner limits assumed): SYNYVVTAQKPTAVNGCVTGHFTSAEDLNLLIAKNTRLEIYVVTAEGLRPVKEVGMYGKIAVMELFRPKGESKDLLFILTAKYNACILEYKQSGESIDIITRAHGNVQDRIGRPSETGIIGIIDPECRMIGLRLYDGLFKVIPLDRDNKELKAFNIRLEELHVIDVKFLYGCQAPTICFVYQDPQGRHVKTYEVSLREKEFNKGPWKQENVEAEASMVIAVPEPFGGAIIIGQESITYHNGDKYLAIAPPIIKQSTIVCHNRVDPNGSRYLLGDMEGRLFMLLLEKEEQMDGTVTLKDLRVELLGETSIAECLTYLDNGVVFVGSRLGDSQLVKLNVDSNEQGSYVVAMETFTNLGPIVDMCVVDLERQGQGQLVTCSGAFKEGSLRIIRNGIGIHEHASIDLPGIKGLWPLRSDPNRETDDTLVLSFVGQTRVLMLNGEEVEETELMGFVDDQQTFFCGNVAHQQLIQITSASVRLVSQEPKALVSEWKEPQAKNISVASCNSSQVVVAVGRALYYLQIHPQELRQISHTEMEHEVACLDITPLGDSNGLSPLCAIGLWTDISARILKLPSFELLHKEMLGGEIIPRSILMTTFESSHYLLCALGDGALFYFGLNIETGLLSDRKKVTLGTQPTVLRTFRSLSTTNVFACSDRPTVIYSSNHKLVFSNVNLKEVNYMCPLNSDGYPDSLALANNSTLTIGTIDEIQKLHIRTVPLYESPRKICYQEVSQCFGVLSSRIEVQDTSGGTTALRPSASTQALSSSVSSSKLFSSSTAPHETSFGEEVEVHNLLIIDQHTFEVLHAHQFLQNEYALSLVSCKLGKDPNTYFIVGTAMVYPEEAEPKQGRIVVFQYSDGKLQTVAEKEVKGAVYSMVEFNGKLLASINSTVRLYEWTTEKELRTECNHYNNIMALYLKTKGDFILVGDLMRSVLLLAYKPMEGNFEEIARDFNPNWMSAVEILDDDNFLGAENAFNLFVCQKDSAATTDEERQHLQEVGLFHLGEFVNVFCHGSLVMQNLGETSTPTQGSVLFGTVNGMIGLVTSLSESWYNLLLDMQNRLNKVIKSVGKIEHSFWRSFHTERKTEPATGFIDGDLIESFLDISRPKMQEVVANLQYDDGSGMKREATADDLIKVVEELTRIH
Protocol: as §1, §2, §3

[1] = compound concentration 6.6667E−05
[2] = compound concentration 6.6667E−06
[3] = compound concentration 6.6667E−07 (667 nM)
[4] = compound concentration 2.00E−05
[5] = compound concentration 2.00E−06
[6] = compound concentration 2.00E−07
[7] = half degradation at 5 h (DC50,5 h), triplicate, 11 point dose response

T1 sequence (Q96SW2 whole entry): as the sequence (Q96SW2 whole entry partner, the tested form may be a part) above
T1 sequence (Q9UKS7 whole entry): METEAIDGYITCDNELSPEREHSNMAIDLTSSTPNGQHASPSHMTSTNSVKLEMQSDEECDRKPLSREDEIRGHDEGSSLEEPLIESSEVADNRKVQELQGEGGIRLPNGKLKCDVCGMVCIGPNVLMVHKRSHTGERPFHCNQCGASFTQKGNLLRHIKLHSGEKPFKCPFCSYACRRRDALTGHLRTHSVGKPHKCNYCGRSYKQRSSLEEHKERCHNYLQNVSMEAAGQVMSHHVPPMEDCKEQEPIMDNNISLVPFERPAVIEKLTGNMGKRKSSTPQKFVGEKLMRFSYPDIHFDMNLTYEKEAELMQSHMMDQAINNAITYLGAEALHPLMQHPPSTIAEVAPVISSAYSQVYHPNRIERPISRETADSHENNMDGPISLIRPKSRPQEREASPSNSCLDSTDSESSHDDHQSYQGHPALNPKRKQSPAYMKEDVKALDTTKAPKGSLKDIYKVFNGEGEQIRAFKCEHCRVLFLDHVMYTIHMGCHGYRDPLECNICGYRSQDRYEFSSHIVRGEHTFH

| SMILES | TR-FRET-IKZF2 (Normalized to CC-885) (CRBN and Helios (IKZF2); [1]) | TR-FRET-IKZF2 (Normalized to CC-885) (CRBN and Helios (IKZF2); [2]) | TR-FRET-IKZF2 (Normalized to CC-885) (CRBN and Helios (IKZF2); [3]) | IKZF2 GFP/RFP Relative Abundance (IKZF2; [4]) | IKZF2 GFP/RFP Relative Abundance (IKZF2; [5]) | IKZF2 GFP/RFP Relative Abundance (IKZF2; [6]) | IKZF1 GFP/RFP Relative Abundance (IKZF1; [4]) | IKZF1 GFP/RFP Relative Abundance (IKZF1; [5]) | IKZF1 GFP/RFP Relative Abundance (IKZF1; [6]) | DC50 (IKZF2; [7]) [nM] | potency of IKZF1 degradation, in words (IKZF1; Table 3 summary) | DC50 (IKZF1; [7]) [nM] |
| --- | --- | --- | --- | --- | --- | --- | --- | --- | --- | --- | --- | --- |
| Cc1ccc(NC(=O)NCc2cccc(OC3=CC(=O)N(C4CCC(=O)NC4=O)C3=O)c2)cc1Cl (stereo not drawn) [Compound 64, 1-(3-chloro-4-methylphenyl)-3-(3-((1-(2,6-dioxopiperidin-3-yl)-2,5-dioxo-2,5-dihydro-1H-pyrrol-3-yl)oxy)benzyl)urea] | 0.030 | 0.025 | 0.021 | 1.087 | 1.038 | 1.061 | 1.154 | 1.077 | 1.122 |  |  |  |
| Cc1ccc(NC(=O)N[C@H](C)c2cccc(NC3=CC(=O)N(C4CCC(=O)NC4=O)C3=O)c2)cc1Cl (stereo partly drawn) [Compound 70, 1-(3-chloro-4-methylphenyl)-3-((1R)-1-(3-((1-(2,6-dioxopiperidin-3-yl)-2,5-dioxo-2,5-dihydro-1H-pyrrol-3-yl)amino)phenyl)ethyl)urea] | 1.531 | 1.409 | 1.271 | 0.021 | 0.057 | 0.031 | 0.076 | 0.080 | 0.103 |  |  |  |
| Cc1ccc(NC(=O)NC(CC(=O)N(C)C)c2cccc(NC3=CC(=O)N(C4CCC(=O)NC4=O)C3=O)c2)cc1Cl (stereo not drawn) [Compound 76, 3-(3-(3-chloro-4-methylphenyl)ureido)-3-(3-((1-(2,6-dioxopiperidin-3-yl)-2,5-dioxo-2,5-dihydro-1H-pyrrol-3-yl)amino)phenyl)-N,N-dimethylpropanamide] | 1.961 | 1.657 | 1.577 | 0.027 | 0.036 | 0.032 | 0.103 | 0.069 | 0.107 |  |  |  |
| Cc1ccc(NC(=O)CNc2cccc(NC3=CC(=O)N(C4CCC(=O)NC4=O)C3=O)c2)cc1Cl (stereo not drawn) [Compound 78, N-(3-chloro-4-methylphenyl)-2-((3-((1-(2,6-dioxopiperidin-3-yl)-2,5-dioxo-2,5-dihydro-1H-pyrrol-3-yl)amino)phenyl)amino)acetamide] |  |  |  |  |  |  |  |  |  | 2.2 | most potent against IKZF1 | 1.9 |
| O=C1CCC(N2C(=O)C=C(Nc3cccc(CNC(=O)NCc4ccccc4)c3)C2=O)C(=O)N1 (stereo not drawn) [Compound 81, 1-benzyl-3-(3-((1-(2,6-dioxopiperidin-3-yl)-2,5-dioxo-2,5-dihydro-1H-pyrrol-3-yl)amino)benzyl)urea] | 0.703 | 0.585 | 0.519 | 0.587 | 0.660 | 0.737 | 0.063 | 0.056 | 0.094 |  |  |  |
| Cc1cc(CNC(=O)NCc2cccc(NC3=CC(=O)N(C4CCC(=O)NC4=O)C3=O)c2)ccc1Cl (stereo not drawn) [Compound 82, 1-(4-chloro-3-methylbenzyl)-3-(3-((1-(2,6-dioxopiperidin-3-yl)-2,5-dioxo-2,5-dihydro-1H-pyrrol-3-yl)amino)benzyl)urea] | 0.999 | 0.975 | 0.838 | 0.158 | 0.220 | 0.293 | 0.085 | 0.085 | 0.069 |  |  |  |
| Cc1ccc(NC(=O)NCc2cc(NC3=CC(=O)N(C4CCC(=O)NC4=O)C3=O)ccc2OC(=O)N(C)C)cc1Cl (stereo not drawn) [Compound 95, 2-((3-(3-chloro-4-methylphenyl)ureido)methyl)-4-((1-(2,6-dioxopiperidin-3-yl)-2,5-dioxo-2,5-dihydro-1H-pyrrol-3-yl)amino)phenyl Dimethylcarbamate] | 0.124 | 0.109 | 0.094 | 1.070 | 1.058 | 1.029 | 0.944 | 0.904 | 0.960 |  |  |  |
| Cc1ccc(NC(=O)N2Cc3ccc(NC4=CC(=O)N(C5CCC(=O)NC5=O)C4=O)cc3C2)cc1Cl (stereo not drawn) [Compound 107, N-(3-chloro-4-methylphenyl)-5-((1-(2,6-dioxopiperidin-3-yl)-2,5-dioxo-2,5-dihydro-1H-pyrrol-3-yl)amino)isoindoline-2-carboxamide] | 0.086 | 0.066 | 0.066 | 0.225 | 1.034 | 1.048 | 0.245 | 1.043 | 0.997 |  |  |  |
| Cc1ccc(NC(=O)N2CCc3ccc(NC4=CC(=O)N(C5CCC(=O)NC5=O)C4=O)cc3C2)cc1Cl (stereo not drawn) [Compound 109, N-(3-chloro-4-methylphenyl)-7-((1-(2,6-dioxopiperidin-3-yl)-2,5-dioxo-2,5-dihydro-1H-pyrrol-3-yl)amino)-3,4-dihydroisoquinoline-2(1H)-carboxamide] | 0.463 | 0.640 | 0.506 | 0.563 | 0.313 | 0.539 | 0.189 | 0.101 | 0.142 |  |  |  |
| O=C1CCC(N2C(=O)C=C(Nc3cccc(CCC(=O)Nc4ccc(C(F)(F)F)c(Cl)c4)c3)C2=O)C(=O)N1 (stereo not drawn) [Compound 129, N-(3-chloro-4-(trifluoromethyl)phenyl)-3-(3-((1-(2,6-dioxopiperidin-3-yl)-2,5-dioxo-2,5-dihydro-1H-pyrrol-3-yl)amino)phenyl)propanamide] | 1.626 | 1.551 | 1.583 | 0.063 | 0.013 | 0.027 |  |  |  |  |  |  |
| Cc1ccc(NC(=O)CC(C)c2cccc(NC3=CC(=O)N(C4CCC(=O)NC4=O)C3=O)c2)cc1Cl (stereo not drawn) [Compound 137] | 1.665 | 1.677 | 1.665 | 0.023 | 0.009 | 0.011 |  |  |  |  |  |  |
| CC(CC(=O)Nc1cccc(C(F)(F)F)c1)c1cccc(NC2=CC(=O)N(C3CCC(=O)NC3=O)C2=O)c1 (stereo not drawn) [Compound 140, 3-(3-((1-(2,6-dioxopiperidin-3-yl)-2,5-dioxo-2,5-dihydro-1H-pyrrol-3-yl)amino)phenyl)-N-(3-(trifluoromethyl)phenyl)butanamide] | 2.291 | 1.72 | 1.626 | 0.174 | 0.017 | 0.013 |  |  |  |  |  |  |
